Results: US10639289B2, “Application of neuraminidase and inhibitors thereof in myocardial ischemia and myocardial infarction” (CHINA PHARMACEUTICAL UNIVERSITY, priority 2016, dated 2020)

Columns and labels:
[1] = test system: left anterior descending coronary artery ligation model; assay: Acute myocardial ischemia model in rats with left anterior descending coronary artery ligation; type: in vivo, SD rats; details: in words
Procedure: 2. The acute myocardial ischemia model in rats with left anterior descending coronary artery ligation: SD rats are selected and divided into 6 groups according to body weight: blank control group, model group, ZA high dose group (0.5 mg/kg iv). ZA low dose group, (0.2 mg/kg iv), OS high-dose group (10 mg/kg po) and OS low-dose group (5 mg/kg po), with 10 rats in each group. The groups with drug administration are pre-administered drugs 24 h and 12 h in advance before the rats are anesthetized with 3% chloral hydrate at 10 ml/kg, laid flat on their backs and fixed on the rat plate. Then cut them open at between left 4th and 5th ribs to open the pericardium, expose the heart, gently press the thorax to extrude the heart, find the left anterior descending coronary artery in the pulmonary artery cone and left atrium, and immediately bind the root of the left anterior descending coronary artery (pulmonary artery cone and left atrial appendage) with suture 0; push the heart back to the chest, and squeeze out the blood and gas in the chest cavity, close the chest cavity quickly, suture the skin, and the chest opening time is no more than 30 s. […]
The level of myocardial neuraminidase in the rat is detected by […], and the detection kit is a neuraminidase detection kit, which is measured according to the instruction manual of the test kit. […]

[2] = test system: isoproterenol-induced acute myocardial ischemia; assay: Electrocardiogram in the acute myocardial ischemia model in rats with ISO; type: in vivo, SD rats; details: for Impact on the ECG (myocardial damage): all dose groups, in words
Procedure: (§1) 1. The acute myocardial ischemia model in rats with ISO: SD rats are selected and divided according to body weight into six groups: blank control group, model group, ZA high dose group (0.5 mg/kg iv) and ZA low dose group (0.2 mg/kg iv), OS high dose group (10 mg/kg po), OS low dose group (5 mg/kg po), with 10 rats in each group. The groups with drug administration are administered the drugs continuously for 3 days, and on the second day of drug administration, and 30 minutes after the drug administration, they are performed subcutaneous injection of ISO at a dose of 60 mg/kg; on the third day of drug administration, and 30 minutes after the drug administration, they are also performed subcutaneous injection of ISO at a dose of 60 mg/kg; on the fourth day their tissue samples such as blood and heart are collected on the fourth day.
3.1 Record the Electrocardiogram
Record the electrocardiogram of each group using standard II lead
(§2) 1. The acute myocardial ischemia model in rats with ISO: SD rats are selected and divided according to body weight into five groups: blank control group, model group, coptisine high dose group (100 mg/kg p.o.) and coptisine medium dose group 25 mg/kg p.o.), coptisine low dose group (10 mg/kg p.o.), with 10 rats in each group. The groups with drug administration are administered the drugs continuously for 3 days, and on the second day of drug administration, and 30 minutes after the drug administration, they are performed subcutaneous injection of ISO at a dose of 60 mg/kg; on the third day of drug administration, and 30 minutes after the drug administration, they are also performed subcutaneous injection of ISO at a dose of 60 mg/kg; on the fourth day their tissue samples such as blood and heart are collected on the fourth day.
3.1 Record ECG: Same as Embodiment 1.

myocardial neuraminidase = assay: Myocardial neuraminidase level by ELISA after isoproterenol modeling; type: in vivo, SD rats; details: ISO model rats; for Effect on the expression level of myocardial neuraminidase: ELISA, in words; for Neuraminidase concentration (myocardial neuraminidase expression level): 3 days
Procedure: as §1, with “day. […]” for “day.”
3.3 Determination of Myocardial Neuraminidase Level
The level of myocardial neuraminidase in the rat is detected by […], and the detection kit is a neuraminidase detection kit, which is measured according to the instruction manual of the test kit.
as §2
3.3 Method for determination of myocardial neuraminidase level: same as in Embodiment 1.

serum CK-MB and D-LDH = assay: Serum myocardial damage indicators CK-MB and D-LDH after isoproterenol modeling; type: in vivo, SD rats; parameters: Serum CK-MB concentration: unit not given here; details: ISO model rats; for Serum CK-MB concentration / Serum D-LDH concentration: 3 days
Procedure: as §1
3.4 the Detection Method for Serum Myocardial Damage Indicator CK-MB and D-LDH
Measure CK-MB and D-LDH according to the CK-MB detection kit (Roche) and D-LDH detection kit (Invitrogen) operating instructions, respectively.
as §2
3.4 Detection method for serum myocardial damage index CK-MB and D-LDH: same as in Embodiment 1.

[3] = test system: isoproterenol-induced acute myocardial ischemia; assay: Cardiac pathology (HE sections) in the acute myocardial ischemia model in rats with ISO; type: in vivo, SD rats; details: for Effect on myocardial cell morphology (cardiac pathological sections): all dose groups, in words
Procedure: as §1
3.2 Observe the Cardiac Pathology
Fix the myocardial tissue of the apical site of the hearts in 10% formaldehyde solution, obtain material conventionally, perform dehydration, embedding in paraffin, and make it into sheets (4 μm thick), stain them with HE, and observe them under an optical microscope.
as §2
3.2 Observing the pathological section of the heart: same as in Embodiment 1.

neuraminidase = assay: Inhibitory rate on neuraminidase (neuraminidase assay kit, fluorescence); type: biochemical
Procedure: 3.5 Determination of the inhibitory rate of coptisine on neuraminidase
Neuraminidase activity is determined using a neuraminidase assay kit. Accurately weigh standard coptisine, and prepare 200 μM (high dose group), 100 μM (medium dose group), and 50 μM (low dose group) solution in that order. To prepare a standard curve, add 70 μl of neuraminidase assay buffer to each well in a 96-well fluorescent plate, and add 0, 1, 2, 5, 7.5 and 10 μl of neuraminidase to each well, respectively. Then add […] of Milli-Q water per well so the total volume of each well is 90 μl. To test the sample, add 70 μl of neuraminidase detection buffer to each well of a 96-well fluorescent plate, then add 10 μl of neuraminidase and 10 μl of coptisine solution in different concentrations per well. Add 0-10 μl of Milli-Q water per well so the total volume of each well is 90 After shaking for about 1 minute, incubate at 37° C. for 2 minutes so the inhibitor fully interacts with neuraminidase; then add 10 μl of neuraminidase fluorescein substrate per well, mix by shaking, incubate at 37° C. for 30 minutes and then perform fluorescence measurement at excitation wavelength 322 nm and emission wavelength of 450 nm.

[4] = oseltamivir phosphate high dose group, 10 mg/kg po
[5] = oseltamivir phosphate low dose group, 5 mg/kg po
[6] = zanamivir high dose group, 0.5 mg/kg iv
[7] = zanamivir low dose group, 0.2 mg/kg iv
[8] = high dose coptisine group, 100 mg/kg p.o.
[9] = low dose coptisine group, 10 mg/kg p.o.
[10] = medium dose coptisine group, 25 mg/kg p.o.

## CCOC(=O)C1=C[C@@H](OC(CC)CC)[C@H](NC(C)=O)[C@@H](N)C1 [Oseltamivir phosphate, oseltamivir phosphate]
[1]
  Electrocardiogram and cardiac pathology: significantly improve electrocardiogram and cardiac pathology in rats
[2]
  Impact on the ECG (myocardial damage): effectively improve myocardial damage in a dose-dependent manner
Myocardial neuraminidase
  Effect on the expression level of myocardial neuraminidase: effective in inhibiting the increase in neuraminidase expression induced by myocardial ischemia in a dose-dependent manner
Myocardial neuraminidase; [4]
  Neuraminidase concentration (myocardial neuraminidase expression level): 16.7202 U/μL
Myocardial neuraminidase; [5]
  Neuraminidase concentration (myocardial neuraminidase expression level): 21.547 U/μL
Serum CK-MB and D-LDH; [4]
  Serum CK-MB concentration: 2846.67
  Serum D-LDH concentration: 7.208 mU/ml
Serum CK-MB and D-LDH; [5]
  Serum CK-MB concentration: 2964.44
  Serum D-LDH concentration: 7.793 mU/ml
[3]
  Effect on myocardial cell morphology (cardiac pathological sections): effective in improving myocardial damage in a dose-dependent manner

## CC(=O)N[C@H]1[C@H]([C@H](O)[C@H](O)CO)OC(C(=O)O)=C[C@@H]1N=C(N)N [Zanamivir, zanamivir]
[1]
  Electrocardiogram and cardiac pathology: significantly improve electrocardiogram and cardiac pathology in rats
[2]
  Impact on the ECG (myocardial damage): effectively improve myocardial damage in a dose-dependent manner
Myocardial neuraminidase
  Effect on the expression level of myocardial neuraminidase: effective in inhibiting the increase in neuraminidase expression induced by myocardial ischemia in a dose-dependent manner
Myocardial neuraminidase; [6]
  Neuraminidase concentration (myocardial neuraminidase expression level): 16.9244 U/μL
Myocardial neuraminidase; [7]
  Neuraminidase concentration (myocardial neuraminidase expression level): 21.8341 U/μL
Serum CK-MB and D-LDH; [6]
  Serum CK-MB concentration: 3544.44
  Serum D-LDH concentration: 8.383 mU/ml
Serum CK-MB and D-LDH; [7]
  Serum CK-MB concentration: 3713.33
  Serum D-LDH concentration: 8.804 mU/ml
[3]
  Effect on myocardial cell morphology (cardiac pathological sections): effective in improving myocardial damage in a dose-dependent manner

## c1c2c(cc3c1OCO3)-c1cc3ccc4c(c3c[n+]1CC2)OCO4 [coptisine]
[2]
  Impact on the ECG (myocardial damage): effectively improve myocardial damage in a dose-dependent manner
[2]; [8]
  Electrocardiogram compared with blank control group: basically consistent with the blank control group
Myocardial neuraminidase
  Effect on the expression level of myocardial neuraminidase: effectively inhibit the increase of neuraminidase expression induced by myocardial ischemia in a dose-dependent manner
Myocardial neuraminidase; [8]
  Reduction of myocardial neuraminidase expression compared with the model group: about 40%
Myocardial neuraminidase; [9]
  Reduction of myocardial neuraminidase expression compared with the model group: about 21%
Myocardial neuraminidase; [10]
  Reduction of myocardial neuraminidase expression compared with the model group: about 29%
Serum CK-MB and D-LDH; [8]
  Reduction of serum CK-MB and LDH levels compared with the model group: about 40%
Serum CK-MB and D-LDH; [9]
  Reduction of serum CK-MB and LDH levels compared with the model group: about 20%
Serum CK-MB and D-LDH; [10]
  Reduction of serum CK-MB and LDH levels compared with the model group: about 30%
[3]
  Effect on myocardial cell morphology (cardiac pathological sections): effectively improve myocardial damage in a dose-dependent manner
[3]; [8]
  Inflammatory cell infiltration: no inflammatory cell infiltration
  Myocardial cell morphology and intercellular fissure compared with blank control group: basically consistent with the blank control group
neuraminidase; 50-200 μM
  Neuraminidase inhibition, assessment in words: potent neuraminidase inhibitor
neuraminidase; coptisine concentration 50 μM
  Inhibitory rate on neuraminidase: 5.64%
neuraminidase; coptisine concentration 100 μM
  Inhibitory rate on neuraminidase: 28.69%
neuraminidase; coptisine concentration 200 μM
  Inhibitory rate on neuraminidase: 56.25%
